Several values for one entry are separate records, joined by “and”; a condition that tells them apart may be missing. Equal entries are not always repeated. Where two headings read alike, the source gives them in different places.
Tests used:
PDGFR β enzyme = biological target: T1, PDGFR β enzyme (Homo sapiens, UniProt P09619); assay: Inhibitory activity to PDGFR β enzyme, HTRF kinEASE TK kit; format: biochemical; details: for inhibition at 1 µM / inhibition at 10 µM: read-out: Inhibition rate % (PDGFR β)
T1 construct: purchased Invitrogen P3082
In short: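 Recombinant human PDGFRβ phosphorylating TK-substrate in kinase buffer containing MgCl2, MnCl2, DTT and SEB, with ATP. Phosphorylation detected by HTRF using TK-Ab-Cryptate and Sa-XL665.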

[1] = system: PC-3 cell Akt (Ser473) phosphorylation; assay: Inhibition of phosphorylation level of PC-3 cell Akt (Ser473), Cisbio HTRF phospho Akt (Ser473) cell-based assay; parameters: species or system human; details: hEGF 100 ng/ml stimulation, 1st and 2nd test where printed
Experimental: The inhibitory activity of the compounds of present invention to the phosphorylation level of PC-3 cell Akt (Ser473) is studied by using Cisbio HTRF phospho Akt (Ser473) cell-based assay test kit.
Cell strain: PC-3 prostate cancer cells line (cell bank of Chinese Academy of Sciences) is cultured by using culture medium (F12K+10% FBS).
hEGF is prepared as stock solution of 100 ug/ml with 10 mM acetic acid, and the stock solution is diluted to 200 ng/ml with serum-free medium, added 50 ul to each well to be stimulated.
b) Preparation of Complete Lysate • 4×Lysis Buffer is diluted 4 times with ddH2O to prepare 1×Lysis Buffer. • 100×Blocking Reagent is diluted 100 times with 1×Lysis Buffer.
c) Preparation of Detection Liquid • 20×Anti-Phospho-Akt is diluted 20 times with Detection Buffer. • 20×Anti-Akt is diluted 20 times with Detection Buffer.
The compounds are diluted with DMSO, and the working concentration of compounds is 100 times of detection concentration.
Cells in logarithmic growth phase are collected, counted, and resuspended with complete culture medium;
The cell concentration is adjusted to appropriate concentration, and cell suspension is inoculated into 96 well plates at 50 μl per well;
Cells are incubated for more than 4 h in the 5% CO2 incubator at temperature of 37° C., relative humidity of 100%;
Cell plate is removed from the incubator. The cell suspension is aspirated gently, and 50 ul serum-free F12K medium is quickly added, then the cell plate is placed into the incubator to culture overnight.
The compounds are diluted in a linear gradient with DMSO.
0.5 ul compounds is added into the test well, mixed on oscillators, and incubated at room temperature for 2 hours.
Proportioned hEGF solution is added to test well at 50 μl per well, and the final concentration is 100 ng/ml. serum-free medium is added into The negative control well at 50 μl per well.
The solution is mixed on oscillator and incubated at room temperature for 2 hours.
The liquid in 96 well plates is aspirated by multichannel pipette or the supernatant is discarded gently. The proportioned complete lysate is added quickly at 50 μl per well.
The solution is mixed on oscillator and lysed at room temperature for 30 min.
16 μl cell lysate is transferred from the 96 well plates to white low volume 384 well plates, and the proportioned two pairs of detection antibody are added. The solution is mixed on oscillator, and incubated at room temperature for 4 hours to detect the readings.

PI3 K γ = biological target: T2, PI3 K γ (Homo sapiens, UniProt P48736); assay: Inhibitory activity to PI3K γ, PI 3-Kinase (human) HTRF Assay kit; format: biochemical; details: for inhibition at 1 µM / inhibition at 10 µM: read-out: Inhibition rate % to PI3 K γ
T2 construct: purchased Biology, Medicilon
In short: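 HTRF kinase assay with PI3Kγ at 80 ng/well, 10 μM PIP2 and 100 μM ATP (both final) in DTT-containing reaction buffer, 1% DMSO. Preliminary screen at 10 μM and 1 μM compound, followed by IC50 determination for selected compounds.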

PI3Kδ = biological target: T3, PI3Kδ (Homo sapiens, UniProt O00329); assay: Inhibitory activity to PI3K δ, PI 3-Kinase (human) HTRF Assay kit; format: biochemical
T3 construct: purchased Millipore 14-604
In short: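 Inhibition of human PI3Kδ was assessed with the Millipore PI 3-Kinase (human) HTRF Assay kit. PI3Kδ was screened at 2 ng/well, diluted in 2×PIP2 operating fluid. Reactions were 20 μL and contained 100 μM ATP. Stop solution was Stop A and Stop B mixed 3:1. Detection solution was DM C, DM A and DM B mixed 18:1:1. Compounds were prepared from DMSO stocks, and percent inhibition was reported.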

[2] = system: BT474 human breast cancer cell strain; assay: Antitumor cell proliferation in vitro, CCK-8 detection kit, BT474; format: cell-based; details: BT-474 cells, 1st and 2nd test where printed
Experimental: (§1) The half inhibitory concentration IC50 of proliferation of three kinds of tumor cell strain (U87MG, PC-3, BT474) for 12 candidate compounds of the present invention is detected by CCK-8 detection kits.
BT474 human breast cancer cell strain (cell bank of Chinese Academy of Sciences) Reagents and materials:
(§2) The studied compounds are dissolved by DMSO to make the final concentration 10 mM.
(§3) • a) Collecting the cells in logarithmic phase, counting, and resuspending the cells with complete medium. • b) Adjusting the concentration of cells to a suitable concentration, inoculating in 96 well plates, each well is inoculated to 100 μl cell suspension.
(§4) c) incubating cells for 24 hours in a 5% CO2 incubator at temperature of 37° C., under the condition of 100% relative humidity.
(§5) a) The cells in logarithmic phase is collected, counted, resuspended with complete medium. The concentration of cells is adjusted to a suitable concentration (determined in accordance with the optimizable test results of cell density), and the cells is inoculated in 96 well plates, wherein each well is inoculated 100 μl cell suspension, Cells are incubated for 24 hours in 5% CO2 incubator at temperature of 37° C. under the condition of 100% relative humidity.
(§6) b) The test compounds are diluted to 500 μM with culture medium, then diluted in series eight times. […] as 25 μl/well. The final concentrations of the compounds are diluted from 100 μM to 0 μM, with 4 times dilution, and there are a total of 10 concentration points.
(§7) c) Cells are incubated for 72 hours in 5% CO2 incubator at temperature of 37° C. under the condition of 100% relative humidity.
(§8) d) The culture medium is aspirated and discarded, and complete medium containing 10% CCK-8 is incubated in a incubator at 37° C. for 2˜4 hours.
(§9) e) After shocking gently, the absorbance of the culture medium is measured at 450 nm wavelength on SpectraMax M5 Microplate Reader, with the absorbance at 650 nm as reference, to calculate the inhibition rate.

PI3K α = biological target: T4, PI3K α (Homo sapiens, UniProt P42336); assay: Inhibitory activity to PI3K α, PI 3-Kinase (human) HTRF Assay kit; format: biochemical; details: read-out: % Inhibition Rate to PI3K α
T4 construct: purchased Millipore 14-602
Description: Study on the inhibitory activity of the compounds of present invention to PI 3κα, PI3κδ and PI3κγ. Two or three concentrations of the compounds are selected to preliminary screening to calculate respectively the activity inhibition rate of the compounds of corresponding concentrations to enzyme, then the compounds with better activity are selected by preliminary screening for IC50 test.
PI 3-Kinase (human) HTRF™ Assay kit (Cat.33-017, Millipore)
PI 3k α (Cat.14-602, Millipore)
4× Reaction Buffer (Cat.33-002, Millipore) is diluted with ddH2O to 1.33×, and 1M DTT is added to make the final concentration as 6.67 mM. For example, 10 μL DTT is added into 500 μL 4× Reaction Buffer, and water is added to 1.5 mL.
The Test compounds are dissolved with DMSO to 1 mM as storage liquid. 2 μL of each of storage liquid is added into 48 μL ddH2O, to obtain the 40 μM compounds solution containing 4% DMSO. After mixing, 3 μL of each of the solution is added into 27 μL 4% DMSO (in ddH2O) to obtain the 4 μM compounds solution. 5 μL of each dilute solution is added into 384-well plates, then the final concentration of the compounds in the 20 μL final kinase reaction system is 10 μM and 1 μM respectively contained 1% DMSO. The dilution methods of compounds are similar to the preliminary screening in IC50 test.
2×PIP2 working fluid is prepared with 1.33× reaction buffer to the final concentration of 20 μM.
The screening concentration of PI 3k α kinase: 8 ng/well,
Kinase is diluted with 2×PIP2 operating fluid, the concentration of kinase operating fluid is 2 times of screening concentration.
10 mM ATP is diluted with 1.33× reaction buffer to 400 μM. The concentration of ATP is 100 μM in 20 μL kinase reaction system.
Stop A and Stop B are mixed according to the proportion of 3:1, and are placed for 2 hours at room temperature to obtain the stop solution available.
DM C, DM A and DM B are mixed according to the proportion of 18:1:1, and are placed for 2 hours at room temperature to obtain the detection solution available.

[3] = system: PC-3 human prostate cancer cell strain; assay: Antitumor cell proliferation in vitro, CCK-8 detection kit, PC-3; format: cell-based; details: PC-3 cells, 1st and 2nd test where printed
Experimental: as §1
PC-3 human prostate cancer cell strain (cell bank of Chinese Academy of Sciences)
as §2, §3, §4, §5, §6, §7, §8, §9

[4] = system: U87MG human glioblastoma Multiforme cell strain; assay: Antitumor cell proliferation in vitro, CCK-8 detection kit, U87MG; format: cell-based; details: U-87 MG, 72 h, U-87MG cells, 1st and 2nd test where printed
Experimental: as §1
U87MG human glioblastoma Multiforme cell strain (cell bank of Chinese Academy of Sciences)
as §2, §3, §4, §5, §6, §7, §8, §9

[5] = 1 μM (Table 7), read-out: Inhibition rate % to PI3Kδ
[6] = 10 μM (Table 7), read-out: Inhibition rate % to PI3Kδ

T3 sequence (O00329 whole entry): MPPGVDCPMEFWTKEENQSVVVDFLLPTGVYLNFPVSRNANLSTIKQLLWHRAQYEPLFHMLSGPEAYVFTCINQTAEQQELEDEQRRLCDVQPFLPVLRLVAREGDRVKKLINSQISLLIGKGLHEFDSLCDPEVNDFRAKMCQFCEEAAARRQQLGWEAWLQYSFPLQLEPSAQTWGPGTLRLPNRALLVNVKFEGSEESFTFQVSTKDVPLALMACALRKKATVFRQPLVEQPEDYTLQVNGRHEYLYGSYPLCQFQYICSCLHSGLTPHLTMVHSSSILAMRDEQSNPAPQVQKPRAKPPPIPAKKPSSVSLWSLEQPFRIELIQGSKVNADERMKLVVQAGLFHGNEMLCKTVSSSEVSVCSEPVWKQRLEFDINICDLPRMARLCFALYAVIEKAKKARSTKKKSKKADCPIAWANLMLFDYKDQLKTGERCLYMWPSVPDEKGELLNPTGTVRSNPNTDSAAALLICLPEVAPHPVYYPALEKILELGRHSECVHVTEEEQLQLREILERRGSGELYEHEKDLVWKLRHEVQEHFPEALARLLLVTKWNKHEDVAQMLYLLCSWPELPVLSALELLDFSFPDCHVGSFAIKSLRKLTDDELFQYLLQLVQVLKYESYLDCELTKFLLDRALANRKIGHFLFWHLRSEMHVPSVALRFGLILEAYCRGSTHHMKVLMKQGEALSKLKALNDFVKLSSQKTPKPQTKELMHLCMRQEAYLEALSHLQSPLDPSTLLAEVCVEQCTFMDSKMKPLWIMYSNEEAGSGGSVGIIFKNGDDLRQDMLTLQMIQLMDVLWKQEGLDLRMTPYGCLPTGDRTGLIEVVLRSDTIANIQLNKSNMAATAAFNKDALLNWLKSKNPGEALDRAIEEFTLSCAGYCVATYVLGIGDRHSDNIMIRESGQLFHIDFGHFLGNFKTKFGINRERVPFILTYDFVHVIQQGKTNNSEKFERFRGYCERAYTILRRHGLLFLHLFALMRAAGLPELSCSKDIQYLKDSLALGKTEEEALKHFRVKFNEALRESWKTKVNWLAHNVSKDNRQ
T3 sequence (P27986 whole entry partner): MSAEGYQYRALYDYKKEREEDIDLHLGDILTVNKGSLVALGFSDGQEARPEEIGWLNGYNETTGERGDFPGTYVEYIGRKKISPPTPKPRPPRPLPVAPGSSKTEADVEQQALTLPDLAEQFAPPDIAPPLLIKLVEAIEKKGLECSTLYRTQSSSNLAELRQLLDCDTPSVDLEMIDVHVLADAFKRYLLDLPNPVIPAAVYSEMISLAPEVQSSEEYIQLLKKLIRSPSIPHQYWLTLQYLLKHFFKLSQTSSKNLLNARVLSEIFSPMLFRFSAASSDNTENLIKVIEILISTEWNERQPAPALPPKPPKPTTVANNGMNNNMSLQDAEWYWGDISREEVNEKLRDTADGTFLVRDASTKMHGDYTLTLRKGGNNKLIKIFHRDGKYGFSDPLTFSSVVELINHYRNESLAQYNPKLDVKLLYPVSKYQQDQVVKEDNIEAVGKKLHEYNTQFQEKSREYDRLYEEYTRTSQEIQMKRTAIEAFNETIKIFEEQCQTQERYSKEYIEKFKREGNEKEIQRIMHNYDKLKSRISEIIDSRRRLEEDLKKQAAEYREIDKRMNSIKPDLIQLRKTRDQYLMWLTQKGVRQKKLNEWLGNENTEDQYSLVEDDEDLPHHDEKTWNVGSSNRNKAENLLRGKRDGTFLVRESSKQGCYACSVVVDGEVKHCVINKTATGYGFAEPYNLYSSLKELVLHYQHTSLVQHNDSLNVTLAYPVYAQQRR
T1 sequence (P09619 33-1106): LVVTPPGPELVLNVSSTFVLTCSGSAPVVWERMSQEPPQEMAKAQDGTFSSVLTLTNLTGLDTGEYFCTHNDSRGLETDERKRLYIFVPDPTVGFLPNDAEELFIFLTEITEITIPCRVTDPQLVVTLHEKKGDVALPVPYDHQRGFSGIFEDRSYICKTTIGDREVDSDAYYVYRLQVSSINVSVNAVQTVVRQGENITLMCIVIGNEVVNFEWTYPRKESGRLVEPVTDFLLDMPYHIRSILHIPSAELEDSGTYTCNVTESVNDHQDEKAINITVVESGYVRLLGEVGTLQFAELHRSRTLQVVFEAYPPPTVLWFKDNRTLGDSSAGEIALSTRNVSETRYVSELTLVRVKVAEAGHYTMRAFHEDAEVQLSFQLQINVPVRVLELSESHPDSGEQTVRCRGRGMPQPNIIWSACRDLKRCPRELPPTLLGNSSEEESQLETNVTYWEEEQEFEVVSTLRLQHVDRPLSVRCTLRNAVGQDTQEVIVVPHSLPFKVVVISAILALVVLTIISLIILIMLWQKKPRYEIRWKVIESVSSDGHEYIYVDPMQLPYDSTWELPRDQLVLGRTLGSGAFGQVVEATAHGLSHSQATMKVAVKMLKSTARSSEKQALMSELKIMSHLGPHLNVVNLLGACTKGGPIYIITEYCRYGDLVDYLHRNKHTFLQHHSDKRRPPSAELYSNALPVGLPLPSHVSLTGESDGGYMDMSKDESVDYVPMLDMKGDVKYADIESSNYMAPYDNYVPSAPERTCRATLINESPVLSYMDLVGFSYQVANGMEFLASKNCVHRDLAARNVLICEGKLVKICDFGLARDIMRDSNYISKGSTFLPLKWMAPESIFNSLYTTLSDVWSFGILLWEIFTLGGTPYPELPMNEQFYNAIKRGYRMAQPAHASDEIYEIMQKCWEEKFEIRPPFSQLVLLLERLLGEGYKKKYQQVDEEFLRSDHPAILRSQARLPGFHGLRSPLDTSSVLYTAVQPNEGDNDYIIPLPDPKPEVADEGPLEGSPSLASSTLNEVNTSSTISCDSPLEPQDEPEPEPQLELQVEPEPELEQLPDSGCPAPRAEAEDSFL
T2 sequence (P48736 whole entry): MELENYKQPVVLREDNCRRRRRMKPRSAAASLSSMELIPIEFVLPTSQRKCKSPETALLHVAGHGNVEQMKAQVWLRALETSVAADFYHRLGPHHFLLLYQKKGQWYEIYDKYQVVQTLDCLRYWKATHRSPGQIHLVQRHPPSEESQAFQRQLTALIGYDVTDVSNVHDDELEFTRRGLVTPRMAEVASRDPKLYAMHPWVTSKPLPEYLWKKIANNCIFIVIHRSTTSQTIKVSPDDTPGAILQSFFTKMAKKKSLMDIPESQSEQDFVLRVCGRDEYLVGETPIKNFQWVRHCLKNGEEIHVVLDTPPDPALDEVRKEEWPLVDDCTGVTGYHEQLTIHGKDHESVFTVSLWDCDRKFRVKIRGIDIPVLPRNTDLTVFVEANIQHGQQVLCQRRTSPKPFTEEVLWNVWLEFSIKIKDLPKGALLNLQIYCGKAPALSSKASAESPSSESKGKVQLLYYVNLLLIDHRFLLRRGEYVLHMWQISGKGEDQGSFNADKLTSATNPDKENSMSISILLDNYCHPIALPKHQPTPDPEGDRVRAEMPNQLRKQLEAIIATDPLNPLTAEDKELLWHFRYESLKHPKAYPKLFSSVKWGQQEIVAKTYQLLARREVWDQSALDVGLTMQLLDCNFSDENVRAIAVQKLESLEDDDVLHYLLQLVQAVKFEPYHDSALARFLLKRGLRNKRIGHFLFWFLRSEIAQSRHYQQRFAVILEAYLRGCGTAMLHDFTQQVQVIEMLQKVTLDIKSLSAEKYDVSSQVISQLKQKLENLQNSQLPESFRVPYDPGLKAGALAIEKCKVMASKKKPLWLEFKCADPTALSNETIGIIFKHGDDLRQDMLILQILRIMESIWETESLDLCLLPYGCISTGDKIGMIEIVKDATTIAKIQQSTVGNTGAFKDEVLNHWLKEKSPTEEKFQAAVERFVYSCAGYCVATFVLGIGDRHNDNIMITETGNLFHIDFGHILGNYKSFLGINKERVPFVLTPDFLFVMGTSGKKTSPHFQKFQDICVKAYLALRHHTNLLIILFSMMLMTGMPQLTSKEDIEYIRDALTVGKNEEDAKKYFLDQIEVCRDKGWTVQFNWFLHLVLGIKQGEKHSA
T4 sequence (P42336 whole entry): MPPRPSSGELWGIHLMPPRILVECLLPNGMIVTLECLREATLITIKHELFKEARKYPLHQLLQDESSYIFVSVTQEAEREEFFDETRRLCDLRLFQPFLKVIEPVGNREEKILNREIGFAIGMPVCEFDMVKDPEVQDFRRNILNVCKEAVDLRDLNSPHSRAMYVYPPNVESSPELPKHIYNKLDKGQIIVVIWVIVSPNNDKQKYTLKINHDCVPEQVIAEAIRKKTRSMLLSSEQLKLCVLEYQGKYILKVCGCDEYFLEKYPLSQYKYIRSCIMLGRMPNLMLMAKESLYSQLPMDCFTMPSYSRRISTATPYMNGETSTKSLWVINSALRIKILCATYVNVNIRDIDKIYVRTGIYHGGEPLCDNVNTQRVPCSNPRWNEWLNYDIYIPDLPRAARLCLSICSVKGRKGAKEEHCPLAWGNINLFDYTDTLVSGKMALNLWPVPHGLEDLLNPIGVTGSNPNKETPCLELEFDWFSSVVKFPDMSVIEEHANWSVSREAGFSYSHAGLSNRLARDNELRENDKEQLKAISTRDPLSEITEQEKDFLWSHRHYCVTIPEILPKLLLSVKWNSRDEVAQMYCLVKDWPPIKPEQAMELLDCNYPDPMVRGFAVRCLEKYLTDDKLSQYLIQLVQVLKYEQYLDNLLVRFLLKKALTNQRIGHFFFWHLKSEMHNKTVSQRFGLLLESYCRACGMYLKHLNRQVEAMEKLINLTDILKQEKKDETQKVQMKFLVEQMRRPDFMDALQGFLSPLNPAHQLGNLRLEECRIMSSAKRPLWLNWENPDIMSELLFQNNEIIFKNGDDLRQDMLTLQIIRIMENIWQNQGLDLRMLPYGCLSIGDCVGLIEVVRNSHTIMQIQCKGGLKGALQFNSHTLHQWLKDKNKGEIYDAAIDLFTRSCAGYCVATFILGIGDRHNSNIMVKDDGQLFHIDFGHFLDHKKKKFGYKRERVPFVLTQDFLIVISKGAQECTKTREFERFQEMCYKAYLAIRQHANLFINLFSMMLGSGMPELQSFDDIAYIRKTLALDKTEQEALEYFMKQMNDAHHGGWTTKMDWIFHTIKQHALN
T4 sequence (P27986 whole entry partner): as the sequence (P27986 whole entry partner) above

| SMILES | IC50 ([1]; Homo sapiens, PC-3, PC-3 cells) | inhibition at 1 µM (PDGFR β enzyme; 1 μM) | inhibition at 10 µM (PDGFR β enzyme; 10 μM) | inhibition at 1 µM (PI3 K γ; 1 μM) | inhibition at 10 µM (PI3 K γ; 10 μM) | inhibition at 1 µM (PI3Kδ; [5]) | inhibition at 10 µM (PI3Kδ; [6]) | further results |
| --- | --- | --- | --- | --- | --- | --- | --- | --- |
| c1ccc(-c2ccnc3ccc(Nc4nc(NC5CC5)c5nc[nH]c5n4)cc23)cc1 [MED1007-31, N6-cyclopropyl-N2-(4-phenylquinoline-6-yl)-9H-purine-2,6 diamine] | 112 nM |  |  |  |  |  |  | Inhibition rate % (PDGFR β) (PDGFR β enzyme; 1 μM): 13.84%; Inhibition rate % (PDGFR β) (PDGFR β enzyme; 10 μM): 26.16%; Inhibition rate % to PI3 K γ (PI3 K γ; 1 μM): 11.33%; Inhibition rate % to PI3 K γ (PI3 K γ; 10 μM): 52.59%; Inhibition rate % to PI3Kδ (PI3Kδ; 1 μM (Table 7), 1 µM): 40.16%; Inhibition rate % to PI3Kδ (PI3Kδ; 10 μM (Table 7), 10 µM): 97.80% |
| c1cnc2ccc(Nc3nc(OC4CCCC4)c4nc[nH]c4n3)cc2c1 [MED1007-35, N-(6-cyclopentyloxy-9H-purine-2-yl) quinoline-6-amine] | 74.5 nM | 54.8% | 99% | 19.2% | 53% | 44.4% | 87.4% |  |
| CC(C)Oc1nc(Nc2ccc3nccc(-c4ccccc4)c3c2)nc2[nH]cnc12 [MED1007-51, N-(6-isopropoxy-9H-purine-2-yl)-4-(phenyl-1-yl) quinoline-6-amine] |  |  |  | 1.16% | 56.2% | 39.6% | 75.5% | IC50 ([2]; 72 hours): 81.4 nM and 114 nM; inhibition at 1 µM (PDGFR β enzyme): 11.9%; inhibition at 10 µM (PDGFR β enzyme): 33.6%; IC50 ([1]; PC-3 cells): 1.14 nM and 0.683 nM |
| COc1ccc(-c2ccnc3ccc(Nc4nc(NC5CC5)c5nc[nH]c5n4)cc23)cc1 [MED1007-63, N6-cyclopropyl-N2-(4-(4-methoxyphenyl)quinoline-6-yl)-9H-purine-2,6-diamine] | 62.2 nM | -0.31% | 28% | 0.96% | 14.7% | 37.5% | 122% |  |
| c1ccc(-c2ccnc3ccc(Nc4nc(N5CCCC5)c5nc[nH]c5n4)cc23)cc1 [MED1007-103, 4-phenyl-N-(6-(pyrrolidine-1-yl)-9H-purine-2-yl)quinoline-6-amine] | 276 nM |  |  |  |  | 68% | 87.5% | inhibition at 1 µM (PI3K α; 1 μM): 55.3%; inhibition at 10 µM (PI3K α; 10 μM): 82.2% |
| CC(C)Oc1nc(Nc2ccc3nccc(-c4ccccc4)c3c2)nc2[nH]cnc12 [MED1007-108, N-(6-isopropoxy-9H-purine-2-yl)-4-(phenyl-1-yl) quinoline-6-amine-methanesulfonate] | 3.83 nM |  |  |  |  |  |  | IC50 ([3]; Homo sapiens, PC-3, 72 h): 71.6 nM; IC50 ([3]; 72 hours): 113 nM; IC50 ([2]; 72 hours): 35 nM; IC50 ([2]; Homo sapiens, BT-474, 72 h): 63 nM; IC50 ([1]; PC-3 cells): 6.51 nM; inhibition at 0.4 µM (PI3Kδ; 0.4 μM (Table 8), read-out: Inhibition rate % to PI3K delta): 40.5%; inhibition at 2 µM (PI3Kδ; 2 μM (Table 8), read-out: Inhibition rate % to PI3K delta): 78.6%; inhibition at 10 µM (PI3Kδ; 10 μM (Table 8), read-out: Inhibition rate % to PI3K delta): 89% |
| c1cnc2ccc(Nc3nc(NC4CC4)c4nc[nH]c4n3)cc2c1 [XC-302, reference compound] |  | 51.1% | 96.5% | 18.3% | 49.3% |  |  | IC50 ([3]; Homo sapiens, PC-3, 72 h): 15000 nM; IC50 [4]: 17800 nM; IC50 ([2]; Homo sapiens, BT-474, 72 h): 5870 nM |

Reference: patent US9718823B2, “2, 6-Di-nitrogen-containing substituted purine derivative, and preparation method, pharmaceutical composition and use thereof” (Zhejiang Medicine Co., Ltd. Xinchang Pharmaceutical Factory, priority 2013, dated 2017)
